Reference: ChEMBL document CHEMBL3627608, “Crystal structures of human RIP2 kinase catalytic domain complexed with ATP-competitive inhibitors: Foundations for understanding inhibitor selectivity” (Bioorg Med Chem, 2015)

Experiments:
[1] = target: Mitogen-activated protein kinase kinase kinase kinase 1 (Homo sapiens) (UniProt Q92918); assay: Inhibition of HPK1 (unknown origin) at 10 uM after 120 mins P33 radiolabeled kinase activity assay
[2] = target: T1, Serine/threonine-protein kinase D3 (Homo sapiens) (UniProt O94806); assay: Inhibition of PKCnu (unknown origin) at 10 uM after 120 mins P33 radiolabeled kinase activity assay
T1 sequence (whole entry): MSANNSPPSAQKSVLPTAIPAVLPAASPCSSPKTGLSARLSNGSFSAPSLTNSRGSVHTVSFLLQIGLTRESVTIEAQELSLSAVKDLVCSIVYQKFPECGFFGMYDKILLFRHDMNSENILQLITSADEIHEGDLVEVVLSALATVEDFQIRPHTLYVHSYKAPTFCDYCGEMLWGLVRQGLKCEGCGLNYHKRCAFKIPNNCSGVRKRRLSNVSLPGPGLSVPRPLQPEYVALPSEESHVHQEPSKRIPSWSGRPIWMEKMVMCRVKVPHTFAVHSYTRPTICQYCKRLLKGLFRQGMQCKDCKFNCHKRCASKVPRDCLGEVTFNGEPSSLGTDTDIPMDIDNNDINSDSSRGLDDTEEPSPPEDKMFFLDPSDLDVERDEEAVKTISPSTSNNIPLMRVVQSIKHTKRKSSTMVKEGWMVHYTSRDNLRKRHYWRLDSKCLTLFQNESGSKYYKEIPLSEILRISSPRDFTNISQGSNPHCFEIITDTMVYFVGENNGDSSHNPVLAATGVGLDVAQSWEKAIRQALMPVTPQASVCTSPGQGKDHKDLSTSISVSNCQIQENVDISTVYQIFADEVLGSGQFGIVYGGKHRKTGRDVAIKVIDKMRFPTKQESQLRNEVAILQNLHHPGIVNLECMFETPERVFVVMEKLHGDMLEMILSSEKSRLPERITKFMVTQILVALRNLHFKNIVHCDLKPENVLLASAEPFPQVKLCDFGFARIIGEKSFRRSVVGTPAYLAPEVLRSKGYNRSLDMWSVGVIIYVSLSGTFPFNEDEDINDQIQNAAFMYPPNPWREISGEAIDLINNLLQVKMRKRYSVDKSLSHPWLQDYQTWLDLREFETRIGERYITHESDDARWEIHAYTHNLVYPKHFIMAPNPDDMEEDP

[3] = target: Serine/threonine-protein kinase MRCK alpha (Homo sapiens) (UniProt Q5VT25); assay: Inhibition of MRCKalpha (unknown origin) at 10 uM after 120 mins P33 radiolabeled kinase activity assay
[4] = target: Bone morphogenetic protein receptor type-1A (Homo sapiens) (UniProt P36894); assay: Inhibition of ALK3 (unknown origin) at 10 uM after 120 mins P33 radiolabeled kinase activity assay
[5] = target: Tyrosine-protein kinase Yes (Homo sapiens) (UniProt P07947); assay: Inhibition of YES (unknown origin) at 10 uM after 120 mins P33 radiolabeled kinase activity assay
[6] = target: Mitogen-activated protein kinase kinase kinase 20 (Homo sapiens) (UniProt Q9NYL2); assay: Inhibition of ZAK (unknown origin) at 10 uM after 120 mins P33 radiolabeled kinase activity assay
[7] = target: T2, Serine/threonine-protein kinase Nek9 (Homo sapiens) (UniProt Q8TD19); assay: Inhibition of NEK9 (unknown origin) at 10 uM after 120 mins P33 radiolabeled kinase activity assay
T2 sequence (whole entry): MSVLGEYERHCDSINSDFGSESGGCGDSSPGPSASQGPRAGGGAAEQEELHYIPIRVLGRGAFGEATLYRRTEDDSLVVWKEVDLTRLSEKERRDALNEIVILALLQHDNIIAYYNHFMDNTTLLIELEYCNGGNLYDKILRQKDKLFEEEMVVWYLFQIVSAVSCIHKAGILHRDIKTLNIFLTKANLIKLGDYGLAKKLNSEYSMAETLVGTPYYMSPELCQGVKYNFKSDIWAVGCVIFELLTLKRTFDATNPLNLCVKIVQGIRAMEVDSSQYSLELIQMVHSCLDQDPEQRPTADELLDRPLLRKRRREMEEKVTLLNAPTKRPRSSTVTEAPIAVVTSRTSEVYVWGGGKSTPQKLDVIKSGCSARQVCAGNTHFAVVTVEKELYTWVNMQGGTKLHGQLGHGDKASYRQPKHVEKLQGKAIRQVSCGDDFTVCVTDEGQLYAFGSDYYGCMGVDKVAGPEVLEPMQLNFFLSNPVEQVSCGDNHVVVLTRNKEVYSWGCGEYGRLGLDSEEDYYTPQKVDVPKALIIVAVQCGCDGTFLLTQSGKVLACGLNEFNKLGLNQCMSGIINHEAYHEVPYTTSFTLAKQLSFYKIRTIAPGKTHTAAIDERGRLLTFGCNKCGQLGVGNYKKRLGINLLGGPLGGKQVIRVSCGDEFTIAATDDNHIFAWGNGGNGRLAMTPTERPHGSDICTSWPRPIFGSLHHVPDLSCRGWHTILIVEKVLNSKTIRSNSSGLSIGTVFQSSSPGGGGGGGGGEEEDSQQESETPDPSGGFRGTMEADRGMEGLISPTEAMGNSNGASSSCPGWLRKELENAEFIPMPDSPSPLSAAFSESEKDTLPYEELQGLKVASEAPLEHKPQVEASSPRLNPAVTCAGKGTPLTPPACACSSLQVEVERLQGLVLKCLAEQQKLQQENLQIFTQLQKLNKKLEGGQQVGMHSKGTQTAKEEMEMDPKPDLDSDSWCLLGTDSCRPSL

[8] = target: Ephrin type-A receptor 7 (Homo sapiens) (UniProt Q15375); assay: Inhibition of EPHA7 (unknown origin) at 10 uM after 120 mins P33 radiolabeled kinase activity assay
[9] = target: T3, Serine/threonine-protein kinase Nek2 (Homo sapiens) (UniProt P51955); assay: Inhibition of NEK2 (unknown origin) at 10 uM after 120 mins P33 radiolabeled kinase activity assay
T3 sequence (whole entry): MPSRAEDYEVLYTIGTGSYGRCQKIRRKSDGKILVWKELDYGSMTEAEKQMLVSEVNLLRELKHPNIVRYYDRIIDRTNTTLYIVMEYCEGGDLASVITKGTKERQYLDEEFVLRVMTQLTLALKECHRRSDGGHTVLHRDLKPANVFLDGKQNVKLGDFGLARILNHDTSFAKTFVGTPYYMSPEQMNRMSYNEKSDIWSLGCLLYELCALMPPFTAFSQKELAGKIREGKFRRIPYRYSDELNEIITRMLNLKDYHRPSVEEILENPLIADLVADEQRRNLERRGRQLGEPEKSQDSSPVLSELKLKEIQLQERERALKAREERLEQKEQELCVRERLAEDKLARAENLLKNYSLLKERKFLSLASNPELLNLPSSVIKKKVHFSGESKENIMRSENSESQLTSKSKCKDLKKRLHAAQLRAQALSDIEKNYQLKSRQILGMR

[10] = target: Tyrosine-protein kinase Fgr (Homo sapiens) (UniProt P09769); assay: Inhibition of FGR (unknown origin) at 10 uM after 120 mins P33 radiolabeled kinase activity assay
[11] = target: RAC-alpha serine/threonine-protein kinase (Homo sapiens) (UniProt P31749); assay: Inhibition of AKT1 (unknown origin) at 10 uM after 120 mins P33 radiolabeled kinase activity assay
RAC-alpha serine/threonine-protein kinase (Homo sapiens), sequence (P31749 whole entry): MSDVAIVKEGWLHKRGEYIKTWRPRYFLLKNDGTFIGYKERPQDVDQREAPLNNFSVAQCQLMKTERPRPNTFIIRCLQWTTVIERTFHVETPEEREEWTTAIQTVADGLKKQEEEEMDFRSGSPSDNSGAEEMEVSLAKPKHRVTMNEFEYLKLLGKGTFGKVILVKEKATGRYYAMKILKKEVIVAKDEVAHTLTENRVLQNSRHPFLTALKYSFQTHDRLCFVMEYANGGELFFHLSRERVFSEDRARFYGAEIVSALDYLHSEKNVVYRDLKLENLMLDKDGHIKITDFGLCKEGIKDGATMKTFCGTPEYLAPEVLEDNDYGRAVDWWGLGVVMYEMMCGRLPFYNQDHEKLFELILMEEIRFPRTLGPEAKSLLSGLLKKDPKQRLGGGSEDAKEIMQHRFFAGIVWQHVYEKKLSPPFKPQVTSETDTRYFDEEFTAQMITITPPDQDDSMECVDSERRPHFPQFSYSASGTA

Tyrosine-protein kinase Yes (Homo sapiens), sequence (P07947 2-543 limits assumed): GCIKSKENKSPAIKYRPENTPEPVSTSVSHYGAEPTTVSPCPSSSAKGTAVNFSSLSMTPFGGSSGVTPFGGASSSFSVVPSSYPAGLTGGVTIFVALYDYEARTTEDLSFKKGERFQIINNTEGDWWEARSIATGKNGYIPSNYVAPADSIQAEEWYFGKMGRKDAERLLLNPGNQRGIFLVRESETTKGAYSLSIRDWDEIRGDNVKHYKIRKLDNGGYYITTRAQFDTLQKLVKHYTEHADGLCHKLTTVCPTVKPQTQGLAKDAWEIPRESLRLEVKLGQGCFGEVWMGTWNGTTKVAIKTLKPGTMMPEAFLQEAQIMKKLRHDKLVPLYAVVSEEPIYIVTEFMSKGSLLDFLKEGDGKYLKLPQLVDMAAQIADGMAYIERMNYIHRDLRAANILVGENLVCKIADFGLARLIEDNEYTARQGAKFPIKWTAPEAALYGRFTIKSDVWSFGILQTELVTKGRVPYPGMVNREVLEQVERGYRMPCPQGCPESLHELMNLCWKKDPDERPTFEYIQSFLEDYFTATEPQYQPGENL
Bone morphogenetic protein receptor type-1A (Homo sapiens), sequence (P36894 whole entry): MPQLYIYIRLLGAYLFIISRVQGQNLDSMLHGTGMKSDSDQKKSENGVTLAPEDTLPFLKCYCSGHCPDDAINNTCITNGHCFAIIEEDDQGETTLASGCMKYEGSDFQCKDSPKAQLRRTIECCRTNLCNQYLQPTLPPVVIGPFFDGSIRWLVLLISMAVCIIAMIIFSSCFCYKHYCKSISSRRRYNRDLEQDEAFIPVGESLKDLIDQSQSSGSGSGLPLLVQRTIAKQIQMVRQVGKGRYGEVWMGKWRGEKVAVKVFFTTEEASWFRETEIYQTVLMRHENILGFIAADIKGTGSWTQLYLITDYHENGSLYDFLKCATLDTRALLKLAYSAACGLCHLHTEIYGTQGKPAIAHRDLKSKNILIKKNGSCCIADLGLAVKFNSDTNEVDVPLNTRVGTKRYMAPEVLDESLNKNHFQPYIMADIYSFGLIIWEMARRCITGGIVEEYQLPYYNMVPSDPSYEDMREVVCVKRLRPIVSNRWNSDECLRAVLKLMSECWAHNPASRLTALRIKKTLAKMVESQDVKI
Mitogen-activated protein kinase kinase kinase 20 (Homo sapiens), sequence (Q9NYL2 2-800 limits assumed): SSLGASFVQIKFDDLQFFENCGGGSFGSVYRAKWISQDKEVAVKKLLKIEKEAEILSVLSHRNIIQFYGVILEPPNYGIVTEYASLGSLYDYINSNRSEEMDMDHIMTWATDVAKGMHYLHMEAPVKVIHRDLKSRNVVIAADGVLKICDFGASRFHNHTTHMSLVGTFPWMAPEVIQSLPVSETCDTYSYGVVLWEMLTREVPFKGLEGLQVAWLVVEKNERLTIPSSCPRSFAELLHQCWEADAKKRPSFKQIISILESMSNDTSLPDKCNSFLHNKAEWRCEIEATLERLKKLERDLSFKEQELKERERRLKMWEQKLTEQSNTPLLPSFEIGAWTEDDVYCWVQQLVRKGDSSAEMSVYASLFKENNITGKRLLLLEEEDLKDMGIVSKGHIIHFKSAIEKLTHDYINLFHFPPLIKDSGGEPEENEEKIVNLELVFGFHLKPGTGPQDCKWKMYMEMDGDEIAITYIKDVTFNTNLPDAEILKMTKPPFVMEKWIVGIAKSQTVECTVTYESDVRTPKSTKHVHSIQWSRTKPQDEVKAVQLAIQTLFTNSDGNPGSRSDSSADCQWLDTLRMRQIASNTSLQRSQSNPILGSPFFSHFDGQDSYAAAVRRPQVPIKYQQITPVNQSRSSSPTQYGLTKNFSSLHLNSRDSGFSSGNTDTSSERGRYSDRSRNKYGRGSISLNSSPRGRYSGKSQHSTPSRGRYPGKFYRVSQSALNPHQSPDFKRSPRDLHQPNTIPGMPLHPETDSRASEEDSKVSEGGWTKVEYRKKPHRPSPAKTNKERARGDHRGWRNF
Tyrosine-protein kinase Fgr (Homo sapiens), sequence (P09769 2-529 limits assumed): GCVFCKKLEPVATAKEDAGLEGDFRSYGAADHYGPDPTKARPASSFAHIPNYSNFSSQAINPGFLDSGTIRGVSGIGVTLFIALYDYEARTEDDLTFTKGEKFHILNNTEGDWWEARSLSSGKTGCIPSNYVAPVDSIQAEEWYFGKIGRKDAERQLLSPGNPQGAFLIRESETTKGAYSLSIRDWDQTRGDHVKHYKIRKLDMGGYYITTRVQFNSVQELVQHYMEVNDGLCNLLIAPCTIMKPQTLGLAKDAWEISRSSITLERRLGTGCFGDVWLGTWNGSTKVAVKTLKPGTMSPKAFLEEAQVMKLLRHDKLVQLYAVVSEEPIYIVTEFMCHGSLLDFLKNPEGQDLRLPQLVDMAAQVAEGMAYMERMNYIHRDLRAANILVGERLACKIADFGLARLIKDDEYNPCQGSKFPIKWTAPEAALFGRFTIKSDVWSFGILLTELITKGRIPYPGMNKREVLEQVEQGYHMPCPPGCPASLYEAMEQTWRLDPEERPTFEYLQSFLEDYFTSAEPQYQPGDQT
Serine/threonine-protein kinase MRCK alpha (Homo sapiens), sequence (Q5VT25 whole entry): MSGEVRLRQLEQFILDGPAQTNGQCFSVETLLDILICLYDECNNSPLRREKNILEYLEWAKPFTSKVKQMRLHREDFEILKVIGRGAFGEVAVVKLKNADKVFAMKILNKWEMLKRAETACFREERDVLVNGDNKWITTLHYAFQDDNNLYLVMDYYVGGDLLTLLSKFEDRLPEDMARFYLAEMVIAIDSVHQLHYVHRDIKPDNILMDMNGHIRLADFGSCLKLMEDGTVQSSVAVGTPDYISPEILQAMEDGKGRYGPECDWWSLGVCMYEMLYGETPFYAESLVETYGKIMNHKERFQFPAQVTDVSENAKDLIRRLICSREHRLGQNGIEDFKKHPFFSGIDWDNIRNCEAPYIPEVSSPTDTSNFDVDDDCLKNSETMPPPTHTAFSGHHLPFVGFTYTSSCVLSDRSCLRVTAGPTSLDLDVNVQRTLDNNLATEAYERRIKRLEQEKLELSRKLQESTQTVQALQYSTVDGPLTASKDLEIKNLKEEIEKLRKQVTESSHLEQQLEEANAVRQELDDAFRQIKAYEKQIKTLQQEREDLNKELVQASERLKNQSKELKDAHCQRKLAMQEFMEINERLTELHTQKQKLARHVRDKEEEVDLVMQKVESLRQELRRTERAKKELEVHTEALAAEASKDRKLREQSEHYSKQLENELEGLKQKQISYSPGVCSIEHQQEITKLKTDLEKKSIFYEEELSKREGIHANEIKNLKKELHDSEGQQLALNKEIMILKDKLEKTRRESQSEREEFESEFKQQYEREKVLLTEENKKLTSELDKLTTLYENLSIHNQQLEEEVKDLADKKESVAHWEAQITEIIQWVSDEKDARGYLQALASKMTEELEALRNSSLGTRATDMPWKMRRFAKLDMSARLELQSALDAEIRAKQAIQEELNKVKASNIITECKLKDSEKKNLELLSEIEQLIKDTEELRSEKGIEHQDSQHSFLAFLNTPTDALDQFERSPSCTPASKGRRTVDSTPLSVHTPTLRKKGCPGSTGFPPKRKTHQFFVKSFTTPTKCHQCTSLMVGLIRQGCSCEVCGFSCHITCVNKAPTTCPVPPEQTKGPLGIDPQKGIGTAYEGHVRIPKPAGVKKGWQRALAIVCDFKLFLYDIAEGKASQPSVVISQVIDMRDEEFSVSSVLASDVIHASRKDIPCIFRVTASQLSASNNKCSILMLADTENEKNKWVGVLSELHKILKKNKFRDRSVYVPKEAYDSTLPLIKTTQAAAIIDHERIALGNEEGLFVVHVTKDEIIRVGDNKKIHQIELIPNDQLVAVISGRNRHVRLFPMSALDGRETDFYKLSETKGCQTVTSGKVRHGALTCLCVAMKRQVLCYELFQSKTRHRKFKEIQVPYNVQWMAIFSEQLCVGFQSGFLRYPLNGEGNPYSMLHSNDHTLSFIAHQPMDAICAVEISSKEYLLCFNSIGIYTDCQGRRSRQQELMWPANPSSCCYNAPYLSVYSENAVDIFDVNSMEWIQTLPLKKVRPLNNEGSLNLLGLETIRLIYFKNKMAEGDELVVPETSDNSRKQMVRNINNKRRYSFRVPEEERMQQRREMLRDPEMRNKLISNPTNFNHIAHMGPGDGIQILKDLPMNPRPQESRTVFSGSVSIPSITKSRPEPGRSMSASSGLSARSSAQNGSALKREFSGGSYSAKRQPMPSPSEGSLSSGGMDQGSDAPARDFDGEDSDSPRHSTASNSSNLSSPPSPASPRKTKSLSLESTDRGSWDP

Structure (SMILES): CS(=O)(=O)c1cccc(Nc2nccc(-c3sc(N4CCOCC4)nc3-c3cccc(NS(=O)(=O)c4c(F)cccc4F)c3)n2)c1
- inhibition [1]: 31.9%
- inhibition [2]: 99.9%
- inhibition [3]: 13%
- inhibition [4]: 75.5%
- inhibition [5]: 99.9%
- inhibition [6]: 99.8%
- inhibition [7]: 100%
- inhibition [8]: 47.5%
- inhibition [9]: 20.5%
- inhibition [10]: 100%
- inhibition [11]: 3.36%

Structure (SMILES): COCCNC(=O)c1ccc2c(c1)nc(-c1cnc(-c3ccc(Cl)cc3)[nH]1)n2CCOC
- inhibition [1]: -3.48%
- inhibition [2]: 9.76%
- inhibition [3]: 8.76%
- inhibition [4]: -9.9%
- inhibition [5]: 70.8%
- inhibition [6]: 38.8%
- inhibition [7]: -6.23%
- inhibition [8]: 18.8%
- inhibition [9]: 2.45%
- inhibition [10]: 67.5%
- inhibition [11]: 4.96%

Structure (SMILES): CC(C)(C)c1cc(NC(=O)Nc2ccc(Oc3ccncc3)cc2)no1
- inhibition [1]: 57.6%
- inhibition [2]: 11.4%
- inhibition [3]: 30.5%
- inhibition [4]: -6.2%
- inhibition [5]: 82%
- inhibition [6]: 99.8%
- inhibition [7]: 20.9%
- inhibition [8]: 96.5%
- inhibition [9]: 18.6%
- inhibition [10]: 90.7%
- inhibition [11]: 4.64%
